Source: ChEMBL document CHEMBL5465560, “Selectivity Literature for EUbOPEN Chemogenomic Library” (2024)

Experiments:
[1] = target: Dual specificity protein kinase CLK4 (Homo sapiens, UniProt Q9HAZ1); details: at 10 µM
[2] = target: Serine/threonine-protein kinase PAK 1 (Homo sapiens) (UniProt Q13153); experiment: Selectivity interaction (KinomeScan (DiscoverX)) EUB0000092b PAK1; details: at 10 µM
[3] = target: Maternal embryonic leucine zipper kinase (Homo sapiens) (UniProt Q14680); experiment: Selectivity interaction (KinomeScan (DiscoverX)) EUB0000655a MELK; details: at 10 µM
Sequence of Maternal embryonic leucine zipper kinase (Homo sapiens) (Q14680 whole entry, looked up): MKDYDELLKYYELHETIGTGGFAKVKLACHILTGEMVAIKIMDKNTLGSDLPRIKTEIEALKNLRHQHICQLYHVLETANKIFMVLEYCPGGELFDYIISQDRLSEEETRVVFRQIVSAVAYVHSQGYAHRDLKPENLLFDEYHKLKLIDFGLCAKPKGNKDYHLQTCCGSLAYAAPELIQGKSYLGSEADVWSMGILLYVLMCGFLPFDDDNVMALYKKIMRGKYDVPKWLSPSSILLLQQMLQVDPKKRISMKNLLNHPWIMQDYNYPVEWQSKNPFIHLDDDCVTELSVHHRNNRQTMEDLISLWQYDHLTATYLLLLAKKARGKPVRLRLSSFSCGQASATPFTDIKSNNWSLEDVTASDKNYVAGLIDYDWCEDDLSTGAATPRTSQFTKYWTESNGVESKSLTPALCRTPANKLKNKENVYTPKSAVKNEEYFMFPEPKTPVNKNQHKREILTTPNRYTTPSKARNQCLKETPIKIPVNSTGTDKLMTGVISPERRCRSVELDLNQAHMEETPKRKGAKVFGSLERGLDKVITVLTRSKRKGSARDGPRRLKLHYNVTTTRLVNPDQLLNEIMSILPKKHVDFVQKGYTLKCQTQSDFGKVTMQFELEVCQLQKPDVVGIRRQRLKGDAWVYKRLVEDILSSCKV

[4] = target: Serine/threonine-protein kinase SIK1 (Homo sapiens) (UniProt P57059); details: at 10 µM
Sequence of Serine/threonine-protein kinase SIK1 (Homo sapiens) (P57059 whole entry): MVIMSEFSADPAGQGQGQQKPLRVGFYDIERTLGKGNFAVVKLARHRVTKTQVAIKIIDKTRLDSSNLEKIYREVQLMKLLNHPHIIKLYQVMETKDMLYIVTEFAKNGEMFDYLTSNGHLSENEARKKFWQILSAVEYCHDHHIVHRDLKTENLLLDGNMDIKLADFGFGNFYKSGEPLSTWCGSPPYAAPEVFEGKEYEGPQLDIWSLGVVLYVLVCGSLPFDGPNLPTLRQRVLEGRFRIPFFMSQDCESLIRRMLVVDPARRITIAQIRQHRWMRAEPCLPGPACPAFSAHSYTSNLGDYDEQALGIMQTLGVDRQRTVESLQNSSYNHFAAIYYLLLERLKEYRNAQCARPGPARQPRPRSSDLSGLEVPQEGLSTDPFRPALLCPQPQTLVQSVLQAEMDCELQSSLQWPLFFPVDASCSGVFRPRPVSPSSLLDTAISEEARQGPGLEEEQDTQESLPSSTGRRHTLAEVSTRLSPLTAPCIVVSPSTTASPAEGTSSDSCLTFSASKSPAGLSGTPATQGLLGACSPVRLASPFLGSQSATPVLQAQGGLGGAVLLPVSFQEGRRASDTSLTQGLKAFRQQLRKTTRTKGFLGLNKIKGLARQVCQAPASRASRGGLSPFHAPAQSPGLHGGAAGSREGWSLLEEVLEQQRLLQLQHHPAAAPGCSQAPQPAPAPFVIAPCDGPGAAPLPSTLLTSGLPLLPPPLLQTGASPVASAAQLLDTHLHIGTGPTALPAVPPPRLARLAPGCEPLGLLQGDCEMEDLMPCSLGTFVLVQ

[5] = target: MAP kinase-activated protein kinase 2 (Homo sapiens, UniProt P49137); experiment: Selectivity interaction (Kinase panel (Z-LYTE Assay)) EUB0001632a MAPKAPK2; details: at 10 µM
Sequence of MAP kinase-activated protein kinase 2 (P49137 whole entry, looked up): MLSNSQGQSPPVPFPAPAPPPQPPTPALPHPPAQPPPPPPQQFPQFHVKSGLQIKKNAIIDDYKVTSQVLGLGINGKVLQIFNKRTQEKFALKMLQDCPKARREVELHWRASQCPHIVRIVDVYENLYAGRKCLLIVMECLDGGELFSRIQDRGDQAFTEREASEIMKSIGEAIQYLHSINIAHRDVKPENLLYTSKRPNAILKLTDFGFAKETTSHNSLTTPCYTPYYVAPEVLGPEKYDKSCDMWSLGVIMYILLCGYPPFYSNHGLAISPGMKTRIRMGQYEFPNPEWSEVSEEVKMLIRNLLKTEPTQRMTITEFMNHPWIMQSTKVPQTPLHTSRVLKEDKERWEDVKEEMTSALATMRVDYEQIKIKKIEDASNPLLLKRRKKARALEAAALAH

[6] = target: T1, SNF-related serine/threonine-protein kinase (Homo sapiens) (UniProt Q9NRH2); experiment: Selectivity interaction (ActivX KiNativ screen (kinase selectivity in THP-1 cell lysates)) EUB0000639a SNRK; format: subcellular; details: lysate, at 0.04 µM
T1 sequence (whole entry): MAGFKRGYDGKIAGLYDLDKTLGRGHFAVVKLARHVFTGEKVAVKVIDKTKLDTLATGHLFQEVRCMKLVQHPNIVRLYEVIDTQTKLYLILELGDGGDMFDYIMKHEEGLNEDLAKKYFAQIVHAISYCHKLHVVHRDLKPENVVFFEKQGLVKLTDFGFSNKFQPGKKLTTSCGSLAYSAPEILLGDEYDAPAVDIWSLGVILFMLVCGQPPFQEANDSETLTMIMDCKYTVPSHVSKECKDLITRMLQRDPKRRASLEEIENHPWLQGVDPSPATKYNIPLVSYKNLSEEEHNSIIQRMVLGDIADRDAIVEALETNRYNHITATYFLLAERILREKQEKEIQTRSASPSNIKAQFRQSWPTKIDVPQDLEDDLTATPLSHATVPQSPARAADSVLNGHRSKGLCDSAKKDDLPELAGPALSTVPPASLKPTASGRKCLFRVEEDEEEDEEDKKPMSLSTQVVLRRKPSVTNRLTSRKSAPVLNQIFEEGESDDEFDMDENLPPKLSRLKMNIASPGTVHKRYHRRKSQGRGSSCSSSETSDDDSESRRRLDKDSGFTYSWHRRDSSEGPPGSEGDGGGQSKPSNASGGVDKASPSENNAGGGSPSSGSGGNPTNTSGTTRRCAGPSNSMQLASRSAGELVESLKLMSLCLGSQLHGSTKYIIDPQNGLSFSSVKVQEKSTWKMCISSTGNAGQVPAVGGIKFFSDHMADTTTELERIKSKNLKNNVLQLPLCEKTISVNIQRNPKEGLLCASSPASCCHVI

[7] = target: Serine/threonine-protein kinase RIO2 (Homo sapiens) (UniProt Q9BVS4); experiment: Selectivity interaction (KinomeScan (DiscoverX)) EUB0001049a RIOK2; details: at 1 µM
[8] = target: Serine/threonine-protein kinase 33 (Homo sapiens) (UniProt Q9BYT3); experiment: Selectivity interaction (KinomeScan (DiscoverX)) EUB0001049a STK33; details: at 1 µM
Sequence of Serine/threonine-protein kinase 33 (Homo sapiens) (Q9BYT3 whole entry, looked up): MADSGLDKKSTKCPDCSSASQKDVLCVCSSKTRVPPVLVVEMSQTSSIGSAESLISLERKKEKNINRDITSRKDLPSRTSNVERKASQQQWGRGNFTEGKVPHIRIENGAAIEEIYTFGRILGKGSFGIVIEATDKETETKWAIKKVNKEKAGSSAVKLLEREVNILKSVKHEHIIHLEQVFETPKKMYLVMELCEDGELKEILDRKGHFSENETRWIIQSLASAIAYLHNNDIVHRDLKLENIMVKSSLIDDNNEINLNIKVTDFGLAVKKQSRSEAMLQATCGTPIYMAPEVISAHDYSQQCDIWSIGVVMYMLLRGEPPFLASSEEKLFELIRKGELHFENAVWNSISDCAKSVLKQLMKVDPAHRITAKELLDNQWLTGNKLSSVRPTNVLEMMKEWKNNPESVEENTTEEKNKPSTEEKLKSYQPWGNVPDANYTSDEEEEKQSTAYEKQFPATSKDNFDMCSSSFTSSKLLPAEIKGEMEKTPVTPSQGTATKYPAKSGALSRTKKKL

[9] = target: T2, Serine/threonine-protein kinase BRSK1 (Homo sapiens) (UniProt Q8TDC3); experiment: Selectivity interaction (KinomeScan (DiscoverX)) EUB0000045b BRSK1
T2 sequence (whole entry): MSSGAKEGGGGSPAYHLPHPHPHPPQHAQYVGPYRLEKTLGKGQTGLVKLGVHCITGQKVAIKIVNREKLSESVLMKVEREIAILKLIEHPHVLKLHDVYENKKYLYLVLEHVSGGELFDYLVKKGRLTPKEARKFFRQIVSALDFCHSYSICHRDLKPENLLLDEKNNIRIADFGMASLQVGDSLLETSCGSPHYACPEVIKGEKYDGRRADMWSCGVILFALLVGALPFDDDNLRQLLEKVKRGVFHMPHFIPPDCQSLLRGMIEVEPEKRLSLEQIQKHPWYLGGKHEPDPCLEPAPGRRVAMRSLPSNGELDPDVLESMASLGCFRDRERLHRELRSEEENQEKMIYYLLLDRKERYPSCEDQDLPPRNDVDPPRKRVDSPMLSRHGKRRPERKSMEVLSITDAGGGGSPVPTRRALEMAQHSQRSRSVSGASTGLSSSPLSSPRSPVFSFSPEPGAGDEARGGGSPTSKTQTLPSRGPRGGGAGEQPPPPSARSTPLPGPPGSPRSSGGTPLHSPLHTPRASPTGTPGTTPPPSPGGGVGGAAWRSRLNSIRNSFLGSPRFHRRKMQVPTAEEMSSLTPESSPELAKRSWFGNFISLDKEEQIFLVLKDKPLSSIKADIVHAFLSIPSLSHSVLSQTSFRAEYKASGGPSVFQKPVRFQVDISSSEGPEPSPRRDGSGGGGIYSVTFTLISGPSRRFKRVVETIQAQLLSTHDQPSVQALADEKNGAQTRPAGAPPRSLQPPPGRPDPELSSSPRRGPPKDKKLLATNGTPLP

[10] = target: Myosin light chain kinase, smooth muscle (Homo sapiens, UniProt Q15746); experiment: Selectivity interaction (KinomeScan (DiscoverX)) EUB0001619a MYLK; details: at 1 µM
Sequence of Myosin light chain kinase, smooth muscle (Q15746 whole entry): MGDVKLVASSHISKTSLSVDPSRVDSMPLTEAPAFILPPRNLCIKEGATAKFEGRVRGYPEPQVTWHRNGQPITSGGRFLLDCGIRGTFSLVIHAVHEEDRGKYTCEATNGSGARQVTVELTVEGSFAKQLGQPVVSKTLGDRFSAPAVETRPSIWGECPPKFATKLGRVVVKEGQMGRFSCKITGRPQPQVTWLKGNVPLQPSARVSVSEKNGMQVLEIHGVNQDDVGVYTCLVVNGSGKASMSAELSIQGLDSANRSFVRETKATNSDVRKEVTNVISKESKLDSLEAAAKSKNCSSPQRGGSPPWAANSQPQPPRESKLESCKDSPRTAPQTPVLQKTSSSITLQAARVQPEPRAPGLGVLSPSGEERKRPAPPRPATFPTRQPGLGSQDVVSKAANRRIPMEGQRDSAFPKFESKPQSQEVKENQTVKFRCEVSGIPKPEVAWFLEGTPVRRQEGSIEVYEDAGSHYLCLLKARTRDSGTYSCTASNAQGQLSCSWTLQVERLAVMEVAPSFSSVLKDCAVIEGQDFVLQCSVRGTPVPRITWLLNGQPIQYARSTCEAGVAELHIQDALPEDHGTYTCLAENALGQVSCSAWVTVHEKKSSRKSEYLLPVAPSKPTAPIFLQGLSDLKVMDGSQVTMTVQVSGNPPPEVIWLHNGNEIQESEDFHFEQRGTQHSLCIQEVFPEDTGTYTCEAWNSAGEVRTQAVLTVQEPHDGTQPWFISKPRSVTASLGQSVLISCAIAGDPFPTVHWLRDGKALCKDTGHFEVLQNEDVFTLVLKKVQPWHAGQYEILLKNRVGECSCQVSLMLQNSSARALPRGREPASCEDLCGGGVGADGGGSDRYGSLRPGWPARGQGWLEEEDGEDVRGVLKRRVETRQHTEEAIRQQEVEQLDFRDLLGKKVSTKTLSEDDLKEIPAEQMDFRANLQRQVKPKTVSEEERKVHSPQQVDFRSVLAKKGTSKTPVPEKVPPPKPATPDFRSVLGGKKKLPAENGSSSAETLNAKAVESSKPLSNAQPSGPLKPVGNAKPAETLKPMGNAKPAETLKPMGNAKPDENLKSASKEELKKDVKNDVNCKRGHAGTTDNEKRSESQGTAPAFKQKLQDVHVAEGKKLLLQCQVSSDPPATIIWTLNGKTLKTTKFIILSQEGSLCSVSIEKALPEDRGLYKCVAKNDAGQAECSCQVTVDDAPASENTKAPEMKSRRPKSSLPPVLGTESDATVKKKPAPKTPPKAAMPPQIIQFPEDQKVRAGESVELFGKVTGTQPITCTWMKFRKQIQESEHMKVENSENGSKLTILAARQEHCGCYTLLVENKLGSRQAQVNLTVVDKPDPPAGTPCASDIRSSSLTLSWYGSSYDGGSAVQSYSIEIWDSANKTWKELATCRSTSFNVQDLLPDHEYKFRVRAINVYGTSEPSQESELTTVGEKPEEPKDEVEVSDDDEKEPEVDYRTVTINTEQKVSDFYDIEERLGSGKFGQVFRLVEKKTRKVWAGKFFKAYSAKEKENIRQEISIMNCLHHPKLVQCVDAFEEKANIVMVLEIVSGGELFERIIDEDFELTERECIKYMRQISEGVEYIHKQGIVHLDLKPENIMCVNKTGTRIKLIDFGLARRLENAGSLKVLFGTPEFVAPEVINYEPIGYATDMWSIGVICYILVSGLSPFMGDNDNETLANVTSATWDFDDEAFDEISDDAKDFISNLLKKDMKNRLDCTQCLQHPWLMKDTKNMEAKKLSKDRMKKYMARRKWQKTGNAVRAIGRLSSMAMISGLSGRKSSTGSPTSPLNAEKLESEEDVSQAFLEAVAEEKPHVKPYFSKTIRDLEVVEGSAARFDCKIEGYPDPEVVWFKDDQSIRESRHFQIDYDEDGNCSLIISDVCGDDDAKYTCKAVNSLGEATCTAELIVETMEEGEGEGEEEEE

Sequence of Serine/threonine-protein kinase PAK 1 (Homo sapiens) (Q13153 whole entry): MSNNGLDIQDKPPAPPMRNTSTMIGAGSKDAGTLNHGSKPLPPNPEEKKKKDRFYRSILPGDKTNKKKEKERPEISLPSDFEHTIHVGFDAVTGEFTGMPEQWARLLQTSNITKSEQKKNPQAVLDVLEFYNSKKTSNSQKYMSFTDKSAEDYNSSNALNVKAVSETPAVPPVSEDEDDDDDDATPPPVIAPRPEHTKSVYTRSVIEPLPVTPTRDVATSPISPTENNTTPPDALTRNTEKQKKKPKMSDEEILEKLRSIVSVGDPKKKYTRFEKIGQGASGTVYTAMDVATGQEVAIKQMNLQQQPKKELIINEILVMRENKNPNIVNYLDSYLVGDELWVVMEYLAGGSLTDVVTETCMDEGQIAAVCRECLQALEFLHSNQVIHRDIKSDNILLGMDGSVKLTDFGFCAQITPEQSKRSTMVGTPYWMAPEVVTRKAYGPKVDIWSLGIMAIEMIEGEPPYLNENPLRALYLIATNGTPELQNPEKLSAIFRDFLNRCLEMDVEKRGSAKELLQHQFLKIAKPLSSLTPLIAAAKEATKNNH

## CCN(CC)CCCCNc1ncc2cc(-c3cc(OC)cc(OC)c3)c(NC(=O)NC(C)(C)C)nc2n1
[1]
  % of control: 100%

## CCC(=O)N1CCN(c2ccc(-n3c(=O)ccc4cnc5ccc(-c6cnc7ccccc7c6)cc5c43)cc2C(F)(F)F)CC1
[2]
  % of control: 73%

## CN(C)CCOc1ccc(-c2nc(-c3ccncc3)c(-c3ccc4c(c3)CC/C4=N\O)[nH]2)cc1
[3]
  % of control: 100%

## Cc1cc([C@@H](C)Nc2ccccc2C(=O)O)c2nc(N3CCOCC3)cc(=O)n2c1 [AZD-6482]
[4]
  % of control: 100%

## Cn1cc(-n2cnc3c(NCc4nc5cc(Cl)c(Cl)cc5[nH]4)nc(N4CCOCC4)nc32)cn1
[5]
  % of control: -2.67%

## CC[C@@H]1[C@H](F)C(=O)N[C@@H]1COc1nccc2cc(C(N)=O)c(OC)cc12 [ZIMLOVISERTIB]
[6]
  % of inhibition: 9.5%

## COc1cc(Nc2nc(C)cc(-c3cnn4nc(OC)ccc34)n2)cc(C(F)(F)F)c1
[7]
  % of control: 87%
[8]
  % of control: 94%

## C=CC(=O)Nc1cc(-n2c(=O)ccc3cnc4ccc(-c5ccc(NS(C)(=O)=O)cc5)cc4c32)ccc1C
[9]; at 1 µM
  % of control: 100%
[9]; at 10 µM
  % of control: 97%

## N#Cc1cccc(-c2c[nH]c3ncnc(N4CCOCC4)c23)c1
[10]
  % of control: 100%
